The source made the active and inactive calls.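 The calls were made as follows: active = at least 50% inhibition of the human mitochondrial methionine-charging enzyme at 10 µM; inactive = under 50% inhibition at 10 µM.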

Sequence of Methionine--tRNA ligase, mitochondrial (Homo sapiens) (Q96GW9 whole entry, looked up): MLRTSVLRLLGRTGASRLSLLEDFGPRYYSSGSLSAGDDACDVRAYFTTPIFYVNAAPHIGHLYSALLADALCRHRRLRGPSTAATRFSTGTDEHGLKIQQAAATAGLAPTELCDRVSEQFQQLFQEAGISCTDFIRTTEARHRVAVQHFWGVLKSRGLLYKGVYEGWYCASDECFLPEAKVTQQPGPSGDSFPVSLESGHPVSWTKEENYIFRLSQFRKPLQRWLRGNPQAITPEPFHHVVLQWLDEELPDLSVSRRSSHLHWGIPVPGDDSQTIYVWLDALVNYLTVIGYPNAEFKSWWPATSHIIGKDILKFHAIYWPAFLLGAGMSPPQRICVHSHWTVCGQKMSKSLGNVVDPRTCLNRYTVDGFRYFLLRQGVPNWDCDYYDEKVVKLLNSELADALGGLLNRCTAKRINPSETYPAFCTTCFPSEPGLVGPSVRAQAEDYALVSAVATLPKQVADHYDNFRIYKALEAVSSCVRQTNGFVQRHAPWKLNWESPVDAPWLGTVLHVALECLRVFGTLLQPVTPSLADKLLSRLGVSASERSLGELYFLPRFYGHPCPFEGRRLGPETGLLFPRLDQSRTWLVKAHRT

This test has as its target Methionine--tRNA ligase, mitochondrial (Homo sapiens) (UniProt Q96GW9). Kind of test: inhibition of human MARS2 tRNA charging – biochemical, radioactivity, [3H]methionine, two concentrations, counter-screen for T. brucei MetRS inhibitor project, late-stage follow-up (AID 720620). To be noted: recombinant human mitochondrial MetRS, [3H]Met-tRNA charging, 60 min; at 10 µM; stronger effect = higher value. (A counterscreen serves to expose hits that act by an unwanted route or on another target.)
`CC(C)(C)[C@@H]1C=C(C(=O)NCc2nc3ccccc3[nH]2)O[C@H](OCc2ccc(CO)cc2)C1`: the inhibition (as a rule, the relative decrease from the control value, in per cent) is -5.44% (inactive).
For `COc1ccccc1-n1c(SCC(=O)Nc2ccc(Cl)cc2)nc(O)c(Cc2ccccc2)c1=O` the value was -19.7% (inactive).
In the case of `O=C(C[C@H]1C(=O)N(Cc2ccccc2)C[C@@H]1c1ccc(Br)cc1)Nc1ccc(Br)cc1`, the inhibition was -8.54% (inactive).
`O=C(CC(=O)Nc1cccc(Cl)c1)NN=Cc1ccccc1`: the inhibition is 9.82% (inactive).
Next, `O=C1[C@@H]2Cc3c([nH]c4ccccc34)C(c3cccc([N+](=O)[O-])c3)N2C(=O)CN1CCCO` (some centres undefined): 4.46% (inactive).
`O=C(NCc1nc2ccccc2[nH]1)C1=C[C@@H](C2CC2)C[C@@H](OCc2ccc(CO)cc2)O1`: the inhibition is 5.87% (inactive).
For `CN(Cc1cc(Cl)cc(Cl)c1)[C@H]1C[C@H]2c3[nH]c4ccccc4c3CCN2C(=O)[C@H]1CO` the value was 80.3%; for `Clc1ccc(-c2nnc(SCc3nc4ccccc4[nH]3)o2)c(Cl)c1`, 41.9% (inactive).
For `O=C(Nc1ccc(F)c(Cl)c1)C1CC(=O)n2c(nc3ccccc32)N1` (centres undefined) the value was 4.32% (inactive); for `CN1CC(=O)N2C(c3cccc([N+](=O)[O-])c3)c3[nH]c4ccccc4c3C[C@H]2C1=O` (some centres undefined), 14% (inactive); for `CC(=O)c1ccc(N2CCN(C(=O)CCCn3c(=O)[nH]c4ccc(Br)cc4c3=O)CC2)cc1`, 7.87% (inactive).
As for `COc1ccc(OCC(O)CNC(=O)Nc2ccc(Cl)cc2)cc1` (centres undefined), the inhibition was 0.31% (inactive).
For `O=C1CC(SCc2nc3ccccc3[nH]2)C(=O)N1c1cccc(Cl)c1` (centres undefined) the value was -0.68% (inactive); for `CCO[C@@H]1OC(C(=O)NCc2nc3ccccc3[nH]2)=C[C@H](c2ccc(Br)cc2)[C@H]1CCCO`, -6.53% (inactive); for `O=C(Cn1cc(C(=O)C(=O)N2CCOCC2)c2ccccc21)Nc1cccc(C(F)(F)F)c1`, -6.56% (inactive).
Next, `O=C(NCc1nc2ccccc2[nH]1)C1=C[C@H](c2csc3ccccc23)C[C@H](OCCCCO)O1`: 2.21% (inactive).
For `CC(=O)c1c[nH]c(C(=O)NCc2cccc(C(F)(F)F)c2)c1` the value was 43.8% (inactive); for `Brc1cnc2nc(SCc3nc4ccccc4[nH]3)[nH]c2c1`, -14.2% (inactive); for `COc1cccc(NC(=O)CSc2nnc3c(n2)[nH]c2ccc(C)cc23)c1`, 40.4% (inactive).
`O=C(NCc1nc2ccccc2[nH]1)C1=C[C@H](c2ccc(Br)cc2)C[C@H](OCc2ccc(CO)cc2)O1`: the inhibition is 17.2% (inactive).
As to `O=C(NCc1nc2ccccc2[nH]1)C1=C[C@@H](c2ccc(Br)cc2)C[C@@H](OCc2ccc(CO)cc2)O1`, the inhibition was 16.7% (inactive).
Next, `O=C(Cn1cnc2ccccc21)Nc1cccc([N+](=O)[O-])c1`: -2.2% (inactive); `COc1ccc(CNC(=O)CSc2nnc3c(n2)[nH]c2ccc(F)cc23)cc1`: -12% (inactive); `O=C(NCc1nc2ccccc2[nH]1)C1=C[C@H](C2CC2)C[C@H](OCc2ccc(CO)cc2)O1`: 12.6% (inactive).
For `O=C(N/C(=C\c1cccnc1)c1nc2ccccc2[nH]1)c1cccc(Br)c1` the value was 4.89% (inactive); for `CC(C)(C)[C@H]1C=C(C(=O)NCc2nc3ccccc3[nH]2)O[C@@H](OCc2ccc(CO)cc2)C1`, 10.3% (inactive).
For `O=C(NNC(=O)c1cc(-c2ccc(Cl)c(Cl)c2)nc2ccccc12)Nc1ccccc1` the value was -11.2% (inactive); for `COc1ccc2[nH]c3nc(SCC(=O)Nc4ccc5c(c4)OCO5)nnc3c2c1`, 24.5% (inactive); for `O=C(CC=NOCc1ccc([N+](=O)[O-])cc1)Nc1ccc(Br)cc1`, -6.71% (inactive).
Turning to `O=C(NCc1nc2ccccc2[nH]1)C1=C[C@@H](c2ccc(Br)cc2)C[C@@H](OCCCCO)O1`, the inhibition is 29% (inactive).
Next, `O=C(CN1CCSC1=NCc1ccccc1)c1ccc(Cl)c(Cl)c1`: -25.5% (inactive); `CC(C)OCCCN1CC(=O)N2C(c3cccc([N+](=O)[O-])c3)c3[nH]c4ccccc4c3C[C@H]2C1=O` (some centres undefined): -3.65% (inactive).
For `O=C(CC=NOCc1ccc([N+](=O)[O-])cc1)Nc1ccc(Cl)cc1` the value was 1.47% (inactive).
Next, `O=C(NCc1nc2ccccc2[nH]1)C1=C[C@H](c2ccc3c(c2)OCO3)C[C@H](OCCCCO)O1`: 10.2% (inactive); `O=C(NCc1nc2ccccc2[nH]1)C1=C[C@@H](c2ccccc2)C[C@@H](OCc2ccc(CO)cc2)O1`: 15.8% (inactive); `Cc1[nH]c2ccc(Br)cc2c(=O)c1CN1CCCCCC1`: -11% (inactive).
As for `Cc1ccc(NC(=O)CN(C)C(=O)CCSc2ccc(F)cc2)cc1`, the inhibition was -21.5% (inactive).
For `O=C(NCCc1nc2ccccc2[nH]1)c1ccc(Cl)c([N+](=O)[O-])c1` the value was 25.5% (inactive); for `CCO[C@H]1OC(C(=O)NCc2nc3ccccc3[nH]2)=C[C@@H](c2ccc(Br)cc2)[C@@H]1CCCO`, 11.7% (inactive).
For `Oc1c(Cl)cc(Cl)cc1CNc1nc2ccccc2[nH]1` the value was 31.4% (inactive); for `CCCCCCCCCC1NC(C(=O)O)Cc2c1[nH]c1ccccc21` (centres undefined), 9.9% (inactive); for `C[C@H](O)[C@@H]1C(=O)N2CCc3c([nH]c4ccccc34)[C@@H]2C[C@@H]1N(C)Cc1ccc2c(c1)OCO2`, 24.8% (inactive).
Next, `O=C(NCc1nc2ccccc2[nH]1)C1=C[C@@H](c2csc3ccccc23)C[C@@H](OCCCCO)O1`: 6.67% (inactive); `CC(CC(=O)Nc1cccc(Br)c1)=NNC(=O)c1ccc(O)cc1O`: 4.55% (inactive); `O=C(NCc1nc2ccccc2[nH]1)C1=C[C@H](c2ccc(Br)cc2)C[C@H](OCCCCO)O1`: -2.4% (inactive).
As for `CCOC(=O)N1CCC(Nc2c(Nc3ccc(F)cc3)c(=O)c2=O)CC1`, the inhibition was -4.56% (inactive).
For `O=C1CC(N(CCc2ccccc2)C(=S)Nc2ccccc2)C(=O)N1c1ccc(Br)cc1` (centres undefined) the value was 25.6% (inactive); for `CN(CC(=O)Nc1ccc(Cl)cc1)C(=O)c1ccc(-n2cncn2)c([N+](=O)[O-])c1`, -19.1% (inactive); for `COc1ccccc1NS(=O)(=O)c1cccc(NC(=O)Nc2ccccc2)c1`, 19.1% (inactive).
For `O=C(NCc1nc2ccccc2[nH]1)C1=C[C@H](c2ccccc2)C[C@H](OCc2ccc(CO)cc2)O1` the value was 12.7% (inactive); for `O=C(NNC(=O)c1ccc(-n2cncn2)c([N+](=O)[O-])c1)c1ccc(Cl)cc1`, -21.4% (inactive).
Next, `Clc1ccc(OCCSCc2nc3ccccc3[nH]2)cc1`: -5.52% (inactive).
In the case of `O=C(CCC(=O)Nc1cccc([N+](=O)[O-])c1)NN=Cc1cccs1`, the inhibition was -14.1% (inactive).
Next, `O=C(NCc1nc2ccccc2[nH]1)C1=C[C@@H](c2ccc3c(c2)OCO3)C[C@@H](OCCCCO)O1`: -0.58% (inactive).

The values are drawn from PubChem BioAssay AID720620 (The Scripps Research Institute Molecular Screening Center, 2013).
